What was measured:
Type in all cases: biochemical
[1] = target: cathepsin S (Homo sapiens, UniProt P25774); assay: Inhibitory activity assay against cathepsin S (enzyme assay); conditions: Z-Phe-Arg-AMC 70 μM, enzyme 3 nM, pH 6.5, 45 minutes
Procedure, shortened: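 Cathepsin S (3 nM final) with Z-Phe-Arg-AMC substrate (70 μM final) in pH 6.5 buffer of 50 mM MES, 2.5 mM DTT, 1.0 mM EDTA, 0.001% BSA, 10% DMSO; compound 10.0 μM down to 0.000508 μM, 10 points. Fluorescence (ex 340/em 460 nm) after 45 min; IC50 by 4-parameter logistic fit.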

[2] = target: cathepsin B (Homo sapiens, UniProt P07858); assay: Inhibitory activity assay against cathepsin B (enzyme assay); conditions: Z-Arg-Arg-AMC 40 μM, enzyme 1 nM, pH 6.0, 90 minutes
Procedure, shortened: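 1 nM enzyme with 40 μM Z-Arg-Arg-AMC and compound (10.0 μM down to 0.000508 μM, 10 points) in pH 6.0 buffer of 50 mM MES, 5 mM DTT, 2.5 mM EDTA, 0.005% Polysorbate 20, 10% DMSO. Fluorescence (340/460 nm) read after 90 min; IC50 by 4-parameter logistic fit.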

[3] = target: T1, cathepsin K (Homo sapiens, UniProt P43235); assay: Inhibitory activity assay against cathepsin K (enzyme assay); conditions: Z-Phe-Arg-AMC 10 μM, enzyme 1 nM, pH 5.5, 30 minutes
T1 sequence (P43235 115-329): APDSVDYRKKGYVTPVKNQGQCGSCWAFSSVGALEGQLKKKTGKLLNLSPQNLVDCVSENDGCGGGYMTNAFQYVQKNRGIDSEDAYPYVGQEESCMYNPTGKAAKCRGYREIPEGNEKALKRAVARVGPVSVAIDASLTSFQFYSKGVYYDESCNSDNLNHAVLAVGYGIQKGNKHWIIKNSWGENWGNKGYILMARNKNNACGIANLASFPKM
Procedure, shortened: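 Fluorogenic assay with 1 nM cathepsin K and 10 μM Z-Phe-Arg-AMC in pH 5.5 buffer (50 mM MES, 2 mM DTT, 2.5 mM EDTA, 0.01% Triton X-100, 10% DMSO). Ten compound concentrations, 10.0 to 0.000508 μM; 30 min reaction, ex 355/em 460 nm; IC50 by 4-parameter logistic fit.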

[4] = target: cathepsin L (Homo sapiens, UniProt P07711); assay: Inhibitory activity assay against cathepsin L (enzyme assay); conditions: Z-Phe-Arg-AMC 2 μM, enzyme 3 nM, pH 5.5, 30 minutes
cathepsin L, sequence (P07711 114-333, species assumed): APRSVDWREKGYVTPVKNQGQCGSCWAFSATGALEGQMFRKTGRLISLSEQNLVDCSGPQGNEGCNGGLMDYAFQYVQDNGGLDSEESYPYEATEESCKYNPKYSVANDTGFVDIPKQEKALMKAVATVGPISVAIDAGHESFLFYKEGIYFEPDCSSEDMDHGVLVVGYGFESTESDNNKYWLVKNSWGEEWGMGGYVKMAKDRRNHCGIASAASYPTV
Procedure, shortened: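 Enzyme at 3 nM with 2 μM Z-Phe-Arg-AMC in 50 mM MES pH 5.5, 2.5 mM DTT, 2.5 mM EDTA, 0.005% Polysorbate 20, 10% DMSO; 30 min reaction, AMC fluorescence 340/460 nm. Ten-point series 10.0 μM to 0.000508 μM; IC50 by 4-parameter logistic fit.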

cathepsin S, sequence (P25774 115-331, species assumed): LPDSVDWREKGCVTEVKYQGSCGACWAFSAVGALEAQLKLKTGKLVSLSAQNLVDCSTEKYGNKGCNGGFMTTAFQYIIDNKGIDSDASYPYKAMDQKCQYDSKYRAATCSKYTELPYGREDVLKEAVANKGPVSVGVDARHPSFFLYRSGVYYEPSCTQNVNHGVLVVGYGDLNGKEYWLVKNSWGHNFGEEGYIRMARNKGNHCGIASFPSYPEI

Row | IC50 [1] [nM] | IC50 [2] [nM] | IC50 [3] [nM] | IC50 [4] [nM] | SMILES
1 | > 10000 | > 10000 | 16.6 | > 10000 | Cn1ncc2ccc(-c3ccc(NC(=O)NC4(c5ccnc(C#N)n5)CCCCC4)cc3)cc21 [Example 118, 1-(1-(2-cyanopyrimidin-4-yl)cyclohexyl)-3-(4-(1-methyl-1H-indazol-6-yl)phenyl)urea]
2 | > 10000 | > 10000 | 17.9 | > 10000 | CC(C)N1CCN(c2ccc(NC(=O)NC3(c4ccnc(C#N)n4)CCCCC3)cc2)CC1 [Example 142, 1-(1-(2-cyanopyrimidin-4-yl)cyclohexyl)-3-(4-(4-isopropylpiperazin-1-yl)phenyl)urea]
3 | 9450 | > 10000 | 355 | > 10000 | CS(=O)(=O)c1ccc(-c2cccc(COC(=O)NC3(c4ccnc(C#N)n4)CCCC3)c2)cc1 [Example 30, (4′-(methylsulfonyl)-[1,1′-biphenyl]-3-yl)methyl (1-(2-cyanopyrimidin-4-yl)cyclopentyl)carbamate]
4 | 3600 | > 10000 | 74 | > 10000 | N#Cc1nccc(C2(NC(=O)Nc3ccc(-c4ccc(S(=O)(=O)C(F)(F)F)cc4)cc3)CCCCC2)n1 [Example 169, 1-(1-(2-cyanopyrimidin-4-yl)cyclohexyl)-3-(4′-((trifluoromethyl)sulfonyl)-[1,1′-biphenyl]-4-yl)urea]
5 | > 10000 | > 10000 | 277 | 4610 | N#Cc1nccc(C2(NC(=O)OCc3cccc(Cl)c3)CCCCC2)n1 [Example 16, 3-chlorobenzyl (1-(2-cyanopyrimidin-4-yl)cyclohexyl)carbamate]
6 | > 10000 | > 10000 | 95.1 | > 10000 | N#Cc1nccc(C2(NC(=O)Nc3ccc4nccnc4c3)CCCC2)n1 [Example 77, 1-(1-(2-cyanopyrimidin-4-yl)cyclopentyl)-3-(quinoxalin-6-yl)urea]
7 | > 10000 | > 10000 | 10.2 | 6500 | N#Cc1nccc(C2(NC(=O)Nc3ccc(F)c(C(F)(F)F)c3)CCCCC2)n1 [Example 96, 1-(1-(2-cyanopyrimidin-4-yl)cyclohexyl)-3-(4-fluoro-3-(trifluoromethyl)phenyl)urea]
8 | > 10000 | > 10000 | 40.9 | > 10000 | N#Cc1nccc(C2(NC(=O)Nc3ccccc3C(F)(F)F)CCCCC2)n1 [Example 92, 1-(1-(2-cyanopyrimidin-4-yl)cyclohexyl)-3-(2-(trifluoromethyl)phenyl)urea]
9 | > 10000 | > 10000 | 17.2 | > 10000 | N#Cc1nccc(C2(NC(=O)Nc3ccc(-c4ccc(F)cc4)cc3)CCCCC2)n1 [Example 121, 1-(1-(2-cyanopyrimidin-4-yl)cyclohexyl)-3-(4′-fluoro-[1,1′-biphenyl]-4-yl)urea]
10 | > 10000 | > 10000 | 31.2 | 7540 | N#Cc1nccc(C2(NC(=O)NCc3ccccc3)CCCC2)n1 [Example 42, 1-benzyl-3-(1-(2-cyanopyrimidin-4-yl)cyclopentyl)urea]
11 | 3370 | > 10000 | 25.2 | > 10000 | N#Cc1nccc(C2(NC(=O)Nc3ccc(-c4ccc(C(=O)O)cc4)c(C(F)(F)F)c3)CCCCC2)n1 [Example 163, 4′-(3-(1-(2-cyanopyrimidin-4-yl)cyclohexyl)ureido)-2′-(trifluoromethyl)-[1,1′-biphenyl]-4-carboxylic acid]
12 | > 10000 | > 10000 | 22 | > 10000 | N#Cc1nccc(C2(NC(=O)Nc3ccc(C#Cc4ccc(CO)cc4)cc3)CCCCC2)n1 [Example 183, 1-(1-(2-cyanopyrimidin-4-yl)cyclohexyl)-3-(4-((4-(hydroxymethyl)phenyl)ethynyl)phenyl)urea]
13 | > 10000 | > 10000 | 9.6 | 6790 | N#Cc1nccc(C2(NC(=O)Nc3ccc(-c4ccncc4)cc3)CCCCC2)n1 [Example 119, 1-(1-(2-cyanopyrimidin-4-yl)cyclohexyl)-3-(4-(pyridin-4-yl)phenyl)urea]
14 | 4620 | > 10000 | 6.4 | > 10000 | COCCOCc1ccc(-c2ccc(NC(=O)NC3(c4ccnc(C#N)n4)CCCCC3)cc2)cc1 [Example 157, 1-(1-(2-cyanopyrimidin-4-yl)cyclohexyl)-3-(4′-((2-methoxyethoxy)methyl)-[1,1′-biphenyl]-4-yl)urea]
15 | 4330 | > 10000 | 16.1 | > 10000 | N#Cc1nccc(C2(NC(=O)Nc3ccc(-c4ccc(C(=O)NCCn5nccn5)cc4)c(F)c3)CCCCC2)n1 [Example 188, N-(2-(2H-1,2,3-triazol-2-yl)ethyl)-4′-(3-(1-(2-cyanopyrimidin-4-yl)cyclohexyl)ureido)-2′-fluoro-[1,1′-biphenyl]-4-carboxamide]
16 | > 10000 | 7340 | 2 | > 10000 | CC(=O)N1CCN(c2ccc(-c3ccc(NC(=O)NC4(c5ccnc(C#N)n5)CCCCC4)cc3)cc2)CC1 [Example 155, 1-(4′(4-acetylpiperazin-1-yl)-[1,1′-biphenyl]-4-yl)-3-(1-(2-cyanopyrimidin-4-yl)cyclohexyl)urea]
17 | > 10000 | 5660 | 19.5 | > 10000 | N#Cc1nccc(C2(NC(=O)NCc3cccc4ccccc34)CCCC2)n1 [Example 55, 1-(1-(2-cyanopyrimidin-4-yl)cyclopentyl)-3-(naphthalen-1-ylmethyl)urea]
18 | 8050 | 2150 | 0.2 | 2420 | N#Cc1nccc(C2(NC(=O)Nc3ccc(-c4ccc(C(=O)NCCc5c[nH]cn5)cc4)cc3)CCCCC2)n1 [Example 184, N-(2-(1H-imidazol-4-yl)ethyl)-4′-(3-(1-(2-cyanopyrimidin-4-yl)cyclohexyl)ureido)-[1,1′-biphenyl]-4-carboxamide]
19 | > 10000 | > 10000 | 51.8 | > 10000 | N#Cc1nccc(C2(NC(=O)Nc3ccc4c(c3)OCO4)CCCC2)n1 [Example 78, 1-(benzo[d][1,3]dioxol-5-yl)-3-(1-(2-cyanopyrimidin-4-yl)cyclopentyl)urea]
20 | > 10000 | 5400 | 0.6 | 1190 | N#Cc1nccc(C2(NC(=O)Nc3ccc(-c4ccc(C(=O)NCCc5c[nH]cn5)cc4)c(C(F)(F)F)c3)CCCCC2)n1 [Example 189, N-(2-(1H-imidazol-4-yl)ethyl)-4′-(3-(1-(2-cyanopyrimidin-4-yl)cyclohexyl)ureido)-2′-(trifluoromethyl)-[1,1′-biphenyl]-4-carboxamide]
21 | > 10000 | > 10000 | 3.9 | > 10000 | CCN1CCN(c2ccc(NC(=O)NC3(c4ccnc(C#N)n4)CCCCC3)cc2)CC1 [Example 146, 1-(1-(2-cyanopyrimidin-4-yl)cyclohexyl)-3-(4-(4-ethylpiperazin-1-yl)phenyl)urea]
22 | > 10000 | > 10000 | 41 | > 10000 | N#Cc1nccc(C2(NC(=O)Nc3ccc4ccccc4c3)CCCC2)n1 [Example 75, 1-(1-(2-cyanopyrimidin-4-yl)cyclopentyl)-3-(naphthalen-2-yl)urea]
23 | > 10000 | > 10000 | 15.9 | > 10000 | N#Cc1nccc(C2(NC(=O)Nc3ccc(I)cc3)CCCCC2)n1 [Example 132, 1-(1-(2-cyanopyrimidin-4-yl)cyclohexyl)-3-(4-iodophenyl)urea]
24 | > 10000 | > 10000 | 83.7 | > 10000 | Cc1ccc(NC(=O)NC2(c3ccnc(C#N)n3)CCCC2)cc1C [Example 62, 1-(1-(2-cyanopyrimidin-4-yl)cyclopentyl)-3-(3,4-dimethylphenyl)urea]
25 | > 10000 | > 10000 | 64.3 | > 10000 | Cc1cc(C)cc(NC(=O)NC2(c3ccnc(C#N)n3)CCCC2)c1 [Example 63, 1-(1-(2-cyanopyrimidin-4-yl)cyclopentyl)-3-(3,5-dimethylphenyl)urea]

From patent publication US11299478B2, “2-cyanopyrimidin-4-yl carbamate or urea derivative or salt thereof, and pharmaceutical composition including same” (HANLIM PHARMACEUTICAL CO., LTD., priority 2018, dated 2022)
